According to a melting point compilation (Tetko et al.):

SMILES	melting point
Cc1c(C(=O)O)nnn1-c1ccc(Br)cc1Cl	163 to 165 °C
CCc1cc(Cl)nc(-c2ccncc2)n1	99 to 101 °C
CCc1noc(CC)c1CC(=O)O	73 to 75 °C
Cc1cc(C)cc(-n2[nH]c(-c3ccco3)cc2=N)c1	125 to 127 °C
NS(=O)(=O)c1cn[nH]c1	200 to 202 °C
N#Cc1cnc2ccccc2c1Cl	128 to 130 °C
CC(C)Oc1ccc(N)cc1C#N	39 to 41 °C
OCc1ccc(O)c(F)c1	81 to 83 °C
CCNc1ccc(S(=O)(=O)N2CCOCC2)cc1N	188 to 190 °C
Cc1nn(C2CCCCC2)c(C)c1N	69 to 71 °C
CCC(Nc1nc(C)cs1)C(=O)O (centres undefined)	173 to 175 °C
COc1ccccc1NCCC(=O)O	84 to 86 °C
CCCc1[nH]ncc1C(=O)O	207 to 209 °C
COc1ccc(C(=O)N2CCN(C)CC2)cc1N	114 to 116 °C
CC(C)(C)OC(=O)NC(CCC(=O)O)c1ccccc1 (centres undefined)	151 to 153 °C
Clc1cnc(Cl)nc1	55 to 57 °C
CCCC1CCc2[nH]c(=O)sc2C1 (centres undefined)	119 to 121 °C
COc1ccc(NS(=O)(=O)c2cc(N)ccc2N2CCCCC2)cc1	145 to 154 °C
COc1ccc(N=C=S)cc1Cl	88 to 90 °C
CC(C)c1ccc(-n2ccnc2SCC(=O)O)cc1	80 to 82 °C

SMILES	melting point
O=Cc1cnc(-c2ccsc2)s1	107 to 109 °C
CN(C)S(=O)(=O)c1ccccc1C(N)=S	154 to 156 °C
Cn1c(=O)n(C)c2cc(S(N)(=O)=O)c(Br)cc21	314 to 316 °C
CCCc1c(C(=O)O)cnn1C1CCCC1	113 to 115 °C
Cn1cccc1C=CC(=O)O	153 to 155 °C
O=Cc1c[nH]c2cccc(F)c12	169 to 171 °C
CC(C)(C)OC(=O)Nc1ccc(F)c(N)c1	122 to 124 °C
Cc1ccc(CN2CC(C(=O)O)CC2=O)cc1 (centres undefined)	152 to 156 °C
Nc1nc(-c2ccc(Cl)cc2)n[nH]1	219 to 221 °C
CCOC(=O)COc1ccc(O)cc1	121 to 123 °C
Cn1c(S)nnc1-c1ccc(Cl)cc1	113 to 115 °C
CC1(c2ccccc2)CC(=O)NC1=O (centres undefined)	79 to 81 °C
O=C(O)CNC(=O)NCc1ccc(F)cc1	169 to 171 °C
NC1=NNC(=O)C1c1ccccc1 (centres undefined)	249 to 251 °C
COc1ccc(C2(C(=O)O)CCCC2)cc1OC	140 to 142 °C
O=c1[nH]c(CCl)nc2sccc12	209 to 211 °C
Sc1nnc(-c2cc3ccccc3o2)o1	249 to 251 °C
CC(=O)c1ccc2c(c1)CC(=O)N2C	176 to 178 °C
O=C(O)C1CCCN(C(=O)c2ccc(Br)c(F)c2)C1 (centres undefined)	157 to 159 °C
ON=C1CCN(Cc2ccccn2)CC1	61 to 63 °C

SMILES	melting point
NS(=O)(=O)CCN1CCNCC1	144 to 146 °C
O=C(O)CCC(=O)NCC(=O)c1ccccc1	143 to 145 °C
Cc1cc(CO)c2ccccc2n1	144 to 146 °C
O=C1NCCNC1c1ccc(C(F)(F)F)cc1 (centres undefined)	141 to 143 °C
Nc1cc(-c2c(F)cccc2F)no1	114 to 116 °C
Cn1c(=O)c2sccc2n2c(CCl)nnc12	244 to 246 °C
O=C(O)c1csc(S(=O)(=O)N2CCOCC2)c1	226 to 228 °C
O=C(O)CNCCO	184 to 186 °C
NC(=O)CC1CCCCC1	165 to 167 °C
CC(N)c1nc(-c2ccccc2)c[nH]1 (centres undefined)	129 to 131 °C
COC(=O)C(=O)CC(=O)c1cccc(Cl)c1	29 to 31 °C
CC(C)(C)OC(=O)N1CCN(CC#N)CC1	79 to 81 °C
O=C(O)c1ccc(Oc2ccccc2Br)nc1	182 to 184 °C
O=C(O)c1ccc(O)c(-c2ccccc2)c1	142 to 144 °C
NC(=O)CO	124 to 126 °C
COc1ccc(S(=O)(=O)Cl)c(C)c1C	84 to 86 °C
Nc1nnc(Cc2ccc(F)cc2)s1	170 to 172 °C
O=C(O)Cc1csc(-c2ccc3c(c2)OCO3)n1	175 to 177 °C
Oc1ccccc1OCc1cscn1	120 to 122 °C
